Measured values from patent US8883827B2, “Azole derivatives as WTN pathway inhibitors” (Oslo University Hospital HF, priority 2009, dated 2014).

Columns and labels:
Format in all cases: cell-based
SW620 = experiment: MTS cell proliferation assay, Table 6; conditions: 10 μM, 72 h, relative to DMSO control
Excerpt: (§1) Control cell lines used were HeLa cells (cell growth not controlled by canonical Wnt signalling) and colorectal cancer cell lines LS174T and HCT116 (with mutant β-catenin N-terminal phosphorylation sites). Target cell lines used were colorectal cancer cell lines WiDr, LoVo, HCT-8, HCT-15, COL0205, DLD-1, HT-29, SW620, SW1463, SW480 which all carry a mutant APC gene. Target cells, along with L Wnt3a-expressing cells and HEK293 cells, were purchased from ATCC (American Type Culture Collection) and maintained according to the supplier's recommendations. Wnt3a containing conditioned media (Wnt3a-CM) from L Wnt3a expressing cells was harvested as described by ATCC.
(§2) For the experiment giving the results shown in Table 6, cells were exposed to cell culture medium (including 10% FBS) containing 10 μM of the compound to be tested 24 hours after seeding (3000 cells on 96-well plates). Medium was changed daily. After 72 hours, an MTS assay (CellTiter 96® AQueous Non-Radioactive Cell Proliferation Assay—Promega) was carried out according to the standard procedure. 0.1% DMSO was used as a control.
(§3) The quantity of reduced MTS product (as measured by the absorbance at 490 nm) is directly proportional to the number of living cells in the culture and thus allows a direct comparison of cell proliferation in each case. DMSO was used as a control. The following formula was used to determine single well relative A490 sample values: ((Sample A490−Average A490t0)*100)/(Average A490t720.1% DMSO control−Average A490t0)
(§4) Data shown are A490-percentage values relative to the DMSO control, calculated as described above, and represent averages from 2 to 4 independent experiments (except SW1463 cells treated with IWR-1 which reports only a single experiment). Compounds IWR-1 and XAV939 are known Wnt pathway inhibitors.

HCT-8 = experiment: MTS cell proliferation assay, Table 6; conditions: 10 μM, 72 h, relative to DMSO control
Excerpt: as §1, §2, §3, §4

WiDr = experiment: MTS cell proliferation assay, Table 6; conditions: 10 μM, 72 h, relative to DMSO control
Excerpt: as §1, §2, §3, §4

LS174T = experiment: MTS cell proliferation assay, Table 6; conditions: LS174T (control); 10 μM, 72 h; relative to DMSO control
Excerpt: as §1, §2, §3, §4

DLD-1 = experiment: MTS cell proliferation assay, Table 6; conditions: 10 μM, 72 h, relative to DMSO control
Excerpt: as §1, §2, §3, §4

LoVo = experiment: MTS cell proliferation assay, Table 6; conditions: 10 μM, 72 h, relative to DMSO control
Excerpt: as §1, §2, §3, §4

HT-29 = experiment: MTS cell proliferation assay, Table 6; conditions: 10 μM, 72 h, relative to DMSO control
Excerpt: as §1, §2, §3, §4

HCT-15 = experiment: MTS cell proliferation assay, Table 6; conditions: 10 μM, 72 h, relative to DMSO control
Excerpt: as §1, §2, §3, §4

HeLa cells = experiment: MTS cell proliferation assay, Table 6; conditions: HeLa (control); 10 μM, 72 h; relative to DMSO control
Excerpt: as §1, §2, §3, §4

HCT116 = experiment: MTS cell proliferation assay, Table 6; conditions: HCT116 (control); 10 μM, 72 h; relative to DMSO control
Excerpt: as §1, §2, §3, §4

COLO205 = experiment: MTS cell proliferation assay, Table 6; conditions: 10 μM, 72 h, relative to DMSO control
Excerpt: as §1, §2, §3, §4

SW1463 = experiment: MTS cell proliferation assay, Table 6; conditions: 10 μM, 72 h, relative to DMSO control
Excerpt: as §1, §2, §3, §4

SW480 = experiment: MTS cell proliferation assay, Table 6; conditions: 10 μM, 72 h, relative to DMSO control
Excerpt: as §1, §2, §3, §4

canonical Wnt signaling [1] = experiment: IC50 in STF/REN HEK293 cells, 50% Wnt3a-CM; conditions: Homo sapiens; STF/REN HEK293, 50% Wnt3a-CM, 24 h
Method: IC50 values were calculated using STF/REN HEK293 cells prepared essentially according to Example 22. Briefly, HEK293 cells (80,000 cells per well) were seeded in 48-well plates coated with poly-L lysine. 24 hours after seeding, the cells were incubated for an additional 24 hours with various compound concentrations in 50% Wnt3a-CM. After compound exposure, the cells were lysed and the firefly luciferase and Renilla activities were measured on a 20/20n Luminometer (Turner BioSystems) as described in the Dual-Glo™ Luciferase Assay System Technical Manual (Promega).
(§5) XLfit (idbs) was used to determine the IC50 and GI50 values in inhibition experiments. The data were fit to the following formulae:
IC50: Langmuir Binding Isotherm: fit=((A+(B*x))+(((C−B)*(1−exp((−1*D)*x)))/D)) res=(y−fit)

canonical Wnt signaling [2] = experiment: ST-Luc (SuperTOPFlash) Luciferase assay in HEK293 cells, 30% Wnt3a-CM; conditions: Homo sapiens, HEK293; 10 μM compound, 30% Wnt3a-CM, 24 h; relative to DMSO control
Method: Inhibition of Wnt signaling by compound No. 1 was quantified in vitro using a Luciferase assay in HEK293 cells transiently transfected with SuperTOPFlash plasmid (ST-Luc) (Veeman M T et al., Curr. Biol. 13: 680-685, 2003) at concentrations from 0.1-10 μM. HEK293 cells were purchased from ATCC (American Type Culture Collection) and maintained according to suppliers recommendations.
Transfection was performed using 80000 HEK293 cells seeded in 48-well plates coated with poly-L lysine. After 24 hours, 0.25 μg total plasmid DNA (0.23 μg SuperTOPFlash+0.02 μg pRL-TK (Renilla)—Promega) and 0.75 μl FuGENE6 (Roche) was combined in a total volume in 25 μl Opti-MEM® (Invitrogen) as described by the manufacturer (Roche). The transfection mixture was added to the plated cells and media were changed after 24 hours.
The Luciferase assay was performed by incubating transfected cells for 24 hours with various concentrations of compound No. 1 in 30% Wnt3a-CM (Wnt3a containing conditioned medium from L Wnt3a cells was harvested as described by ATCC). All treated reporter cells were finally lysed and the firefly luciferase and Renilla activities were measured on a 20/20n Luminometer (Turner BioSystems) as described in the Dual-Glo™ Luciferase Assay System Technical Manual (Promega).
HEK293 cells were transfected, grown and assayed as described in Example 22. 24 hours after seeding, the cells were incubated for an additional 24 hours with 10 μM concentrations of compounds in 30% Wnt3a-CM.
The percent activities shown in Table 3 are calculated relative to DMSO as a control. Some values shown are averages of multiple measurements. Compound XAV939 (Novartis; Huang et al., Nature (2009), 461, pp. 614-20) which is used as a positive control, has an activity of 7%.

control cell lines = experiment: MTS cell proliferation assay, Table 6, mean; conditions: HeLa, HCT116, LS174T; 10 μM, 72 h
Excerpt: as §1, §2, §3, §4

APC mutant cell lines = experiment: MTS cell proliferation assay, Table 6, mean; conditions: 10 μM, 72 h; for Ratio of means: APC mutant cell lines versus control cell lines; for Mean proliferation (APC mutant cell lines): ten APC mutant colorectal lines
Excerpt: as §1, §2, §3, §4

SW480 cells = experiment: Growth inhibition (GI50) MTS assay; conditions: Homo sapiens, 72 h
Method: Growth inhibition curves were prepared using SW480 cells, prepared essentially according to Example 23. SW480 cells (3000 cells per well) were seeded on 96 well plates (eight replicates per treatment). 24 hours later and daily thereafter, cell culture media (including 10% FBS) was mixed with various compound concentrations or with 0.1% DMSO vehicle and then added to the wells. Sixteen wells of seeded control cells, defining incubation time zero (to =24 hour after cell seeding), were incubated with […] substrate in 100 μl of phenol-free D-MEM (Invitrogen) for 2 hours, as described in the CellTiter 96® AQueous Non-Radioactive Cell Proliferation Assay protocol (MTS, Promega). The A490 was recorded. The treatment samples were likewise measured after 72 hours. The following formula was used to determine the single well relative A490 sample values: ((Sample A490−Average A490t0)*100)/(Average A490t720.1% DMSO control−Average A490t0)
as §5
GI50: Eadie-Hofstee Model: fit=(A+((B*x)/((C*(D+1))+x))) inv=(((y−A)*(C*(D+1)))/((A+B)−y)) res=(y−fit)

Row | IC50 (canonical Wnt signaling [1]) [nM] | GI50 (SW480 cells) [nM] | SMILES | Cell proliferation (%) (SW620) | Cell proliferation (%) (HCT-8) | Cell proliferation (%) (WiDr) | Cell proliferation (%) (LS174T) | Cell proliferation (%) (DLD-1) | Cell proliferation (%) (LoVo) | Cell proliferation (%) (HT-29) | Cell proliferation (%) (HCT-15) | Cell proliferation (%) (HeLa cells) | Cell proliferation (%) (HCT116) | Cell proliferation (%) (COLO205) | Cell proliferation (%) (SW1463) | Cell proliferation (%) (SW480) | activity at 10 µM (canonical Wnt signaling [2]) [%] | Mean proliferation (control cell lines) (control cell lines) [%] | Ratio of means (APC mutant cell lines) | Mean proliferation (APC mutant cell lines) (APC mutant cell lines) [%]
1 | 160 | 8000 | Cc1ccc(-c2noc(CSc3nnc(-c4ccncc4)n3-c3ccccc3Cl)n2)cc1 [compound 43] | 33 | 69 | 76 | 99 | 76 | 64 | 63 | 54 | 92 | 86 | 33 | 1 | 51 | 7.8 | 92 | 0.56 | 52
2 | < 100 |  | Oc1nc(-c2ccc(C(F)(F)F)cc2)nc2c1CSCC2 [XAV939, reference compound] | 102 | 105 | 94 | 97 | 102 | 129 | 100 | 90 | 92 | 109 | 116 | 64 | 103 | 7 | 99 | 1.01 | 101
